In patent US20250057846A1, “COMBINATION OF A TASK1/3 CHANNEL BLOCKER WITH A MUSCARINIC RECEPTOR ANTAGONIST FOR THE TREATMENT OF SLEEP APNEA” (BAYER AKTIENGESELLSCHAFT, priority 2021, published 2025):

System: pig model of obstructive sleep apnea (OSA)
Assay: pig model of obstructive sleep apnea (OSA): collapsibility of the upper respiratory tract under negative pressure
Format: in vivo, German Landrace pigs
Description: The therapeutic potential of the combination of a TASK1/3 channel blocker with a muscarinic receptor antagonist according to the present invention in sleep apnea can be assessed preclinically in a pig model of obstructive sleep apnea (OSA).
Using negative pressure, it is possible to induce collapse and thus obstruction of the upper respiratory tract in anaesthetized, spontaneously breathing pigs (Wirth K. J. et al., Sleep 36(5) (2013) pp. 699-708).
German Landrace pigs are used for the model. The pigs are anaesthetized and tracheotomized. Two tracheal cannulas are inserted into the trachea, one into the rostral part and the other into the caudal part of the trachea.
Using a connection piece, the rostral cannula is connected to a tube to the negative pressure device and to the distal tracheal cannula. The distal tracheal cannula is additionally connected to a tube with an open end to atmosphere via a connection piece that served for free tracheal breathing, circumventing the upper airway. By appropriate opening and clamping of those tubes breathing can be switched from nasal breathing to breathing through the caudal tracheal cannula, circumventing the upper airway, and the (isolated) upper airway can be connected to the negative pressure device, causing airflow in the inspiratory direction.
At certain points in time, the collapsibility of the upper respiratory tract is tested by having the pig breathe via the caudal cannula and applying negative pressures of −50, −100 and −150 cm water head (cm H2O) to the upper respiratory tract. This causes the upper respiratory tract to collapse, which manifests itself in an interruption of the airflow and a pressure drop in the tube system. This test is conducted prior to the administration of the test substance and at certain intervals after the administration of the test substance. An appropriately effective test substance can prevent this collapse of the respiratory tract in the inspiratory phase.

[1] = TASK1/TASK3 channel blocker alone, intranasal 0.3 μg, given at 0 min, time 0 min
[2] = TASK1/TASK3 channel blocker alone, intranasal 0.3 μg, given at 0 min, time 10 min
[3] = TASK1/TASK3 channel blocker alone, intranasal 0.3 μg, given at 0 min, time 30 min
[4] = TASK1/TASK3 channel blocker alone, intranasal 0.3 μg, given at 0 min, time 60 min
[5] = TASK1/TASK3 channel blocker alone, intranasal 0.3 μg, given at 0 min, time 90 min
[6] = R-oxybutynin i.v. bolus 1 mg/kg then i.v. infusion 0.275 mg/kg/h for four hours, given at 0 min, time 0 min
[7] = R-oxybutynin i.v. bolus 1 mg/kg then i.v. infusion 0.275 mg/kg/h for four hours, given at 0 min, time 10 min
[8] = R-oxybutynin i.v. bolus 1 mg/kg then i.v. infusion 0.275 mg/kg/h for four hours, given at 0 min, time 30 min
[9] = R-oxybutynin i.v. bolus 1 mg/kg then i.v. infusion 0.275 mg/kg/h for four hours, given at 0 min, time 60 min
[10] = R-oxybutynin i.v. bolus 1 mg/kg then i.v. infusion 0.275 mg/kg/h for four hours, given at 0 min, time 120 min
[11] = R-oxybutynin i.v. bolus 1 mg/kg then i.v. infusion 0.275 mg/kg/h for four hours, given at 0 min, time 180 min
[12] = R-oxybutynin i.v. bolus 1 mg/kg then i.v. infusion 0.275 mg/kg/h for four hours, given at 0 min, time 240 min
[13] = R-oxybutynin i.v. bolus 1 mg/kg then i.v. infusion 0.275 mg/kg/h for four hours, given at 0 min, time 300 min
[14] = combination experiment: R-oxybutynin i.v. bolus 1 mg/kg then infusion 0.275 mg/kg/h for four hours at 0 min, nasal TASK1/3 channel blocker only given at 120 min, time 0 min
[15] = combination experiment: R-oxybutynin i.v. bolus 1 mg/kg then infusion 0.275 mg/kg/h for four hours at 0 min, nasal TASK1/3 channel blocker only given at 120 min, time 10 min
[16] = combination experiment: R-oxybutynin i.v. bolus 1 mg/kg then infusion 0.275 mg/kg/h for four hours at 0 min, nasal TASK1/3 channel blocker only given at 120 min, time 30 min
[17] = combination experiment: R-oxybutynin i.v. bolus 1 mg/kg then infusion 0.275 mg/kg/h for four hours at 0 min, nasal TASK1/3 channel blocker only given at 120 min, time 60 min
[18] = combination experiment: R-oxybutynin i.v. bolus 1 mg/kg then infusion 0.275 mg/kg/h for four hours at 0 min, nasal TASK1/3 channel blocker only given at 120 min, time 90 min
[19] = combination experiment: R-oxybutynin i.v. bolus 1 mg/kg then infusion 0.275 mg/kg/h for four hours at 0 min, time 120 min = time of nasal application of TASK1/3 channel blocker
[20] = oxybutynin i.v. bolus 1 mg/kg then i.v. infusion 0.275 mg/kg/h for four hours, given at 0 min, time 0 min

SMILES: COc1ccc(Cl)c(C(=O)N2C3CCC2CN(Cc2c(-c4ccc(C(C)C)cc4)nc4ncccn24)C3)n1 [(3-Chloro-6-methoxypyridin-2-yl)(3-{[2-(4-isopropylphenyl)imidazo[1,2-a]pyrimidin-3-yl]methyl}-3,8-diazabicyclo[3.2.1]oct-8-yl)methanone]
- effect of the dose on upper airway collapsibility (TASK1/TASK3 channel blocker alone, 0.3 μg): non effective dose
- Percent pigs without collaps −50 cm H2O, % [1]: 0%
- Percent pigs without collaps −100 cm H2O, % [1]: 0%
- Percent pigs without collaps −150 cm H2O, % [1]: 0%
- Percent pigs without collaps −50 cm H2O, % [2]: 33%
- Percent pigs without collaps −100 cm H2O, % [2]: 33%
- Percent pigs without collaps −150 cm H2O, % [2]: 0%
- Percent pigs without collaps −50 cm H2O, % [3]: 0%
- Percent pigs without collaps −100 cm H2O, % [3]: 0%
- Percent pigs without collaps −150 cm H2O, % [3]: 0%
- Percent pigs without collaps −50 cm H2O, % [4]: 0%
- Percent pigs without collaps −100 cm H2O, % [4]: 0%
- Percent pigs without collaps −150 cm H2O, % [4]: 0%
- Percent pigs without collaps −50 cm H2O, % [5]: 0%
- Percent pigs without collaps −100 cm H2O, % [5]: 0%
- Percent pigs without collaps −150 cm H2O, % [5]: 0%

SMILES: CCN(CC)CC#CCOC(=O)[C@](O)(c1ccccc1)C1CCCCC1 [R-oxybutynin, R-Oxybutynin]
- time points at which upper airway collapsibility was inhibited at all negative pressures of −50, −100 and −150 cm head (cm H2O) in all pigs (R-Oxybutynin i.v. bolus 1 mg/kg then i.v. infusion 0,275 mg/kg/h for four hours): at no time
- upper airway collapsibility at the negative pressure of −50 cm head (cm H2O) (R-Oxybutynin i.v. bolus 1 mg/kg then i.v. infusion 0,275 mg/kg/h for four hours, time point 60 min after intravenous administration): inhibited
- Percent pigs without collaps −50 cm H2O, % [6]: 0%
- Percent pigs without collaps −100 cm H2O, % [6]: 0%
- Percent pigs without collaps −150 cm H2O, % [6]: 0%
- Percent pigs without collaps −50 cm H2O, % [7]: 0%
- Percent pigs without collaps −100 cm H2O, % [7]: 0%
- Percent pigs without collaps −150 cm H2O, % [7]: 0%
- Percent pigs without collaps −50 cm H2O, % [8]: 0%
- Percent pigs without collaps −100 cm H2O, % [8]: 0%
- Percent pigs without collaps −150 cm H2O, % [8]: 0%
- Percent pigs without collaps −50 cm H2O, % [9]: 100%
- Percent pigs without collaps −100 cm H2O, % [9]: 50%
- Percent pigs without collaps −150 cm H2O, % [9]: 0%
- Percent pigs without collaps −50 cm H2O, % [10]: 0%
- Percent pigs without collaps −100 cm H2O, % [10]: 0%
- Percent pigs without collaps −150 cm H2O, % [10]: 0%
- Percent pigs without collaps −50 cm H2O, % [11]: 0%
- Percent pigs without collaps −100 cm H2O, % [11]: 0%
- Percent pigs without collaps −150 cm H2O, % [11]: 0%
- Percent pigs without collaps −50 cm H2O, % [12]: 0%
- Percent pigs without collaps −100 cm H2O, % [12]: 0%
- Percent pigs without collaps −150 cm H2O, % [12]: 0%
- Percent pigs without collaps −50 cm H2O, % [13]: 0%
- Percent pigs without collaps −100 cm H2O, % [13]: 0%
- Percent pigs without collaps −150 cm H2O, % [13]: 0%
- Percent pigs without collaps −50 cm H2O, % [14]: 0%
- Percent pigs without collaps −100 cm H2O, % [14]: 0%
- Percent pigs without collaps −150 cm H2O, % [14]: 0%
- Percent pigs without collaps −50 cm H2O, % [15]: 0%
- Percent pigs without collaps −100 cm H2O, % [15]: 0%
- Percent pigs without collaps −150 cm H2O, % [15]: 0%
- Percent pigs without collaps −50 cm H2O, % [16]: 0%
- Percent pigs without collaps −100 cm H2O, % [16]: 0%
- Percent pigs without collaps −150 cm H2O, % [16]: 0%
- Percent pigs without collaps −50 cm H2O, % [17]: 100%
- Percent pigs without collaps −100 cm H2O, % [17]: 33%
- Percent pigs without collaps −150 cm H2O, % [17]: 0%
- Percent pigs without collaps −50 cm H2O, % [18]: 0%
- Percent pigs without collaps −100 cm H2O, % [18]: 0%
- Percent pigs without collaps −150 cm H2O, % [18]: 0%
- Percent pigs without collaps −50 cm H2O, % [19]: 0%
- Percent pigs without collaps −100 cm H2O, % [19]: 0%
- Percent pigs without collaps −150 cm H2O, % [19]: 0%

SMILES: CCN(CC)CC#CCOC(=O)C(O)(c1ccccc1)C1CCCCC1 (stereo not shown) [oxybutynin, Oxybutynin]
- Percent pigs without collaps −50 cm H2O, % [20]: 0%
- Percent pigs without collaps −100 cm H2O, % [20]: 0%
- Percent pigs without collaps −150 cm H2O, % [20]: 0%
- time points at which upper airway collapsibility was inhibited at all three negative pressures of −50, −100 and −150 cm head (cm H2O) in all pigs (oxybutynin i.v. bolus 1 mg/kg then i.v. infusion 0,275 mg/kg/h for four hours): at no time point
